Among the data in US20100016293A1, “Quinazolines and Related Heterocyclic Compounds, and Their Therapeutic Use” (priority 2006, published 2010) are Ki values, retold here.

Some results are limits rather than exact numbers.

The target of the test is T1, human H4 receptor (Homo sapiens, UniProt Q9H3N8).
T1 construct: expressed in transfected cells; host or cells: HEK 293T cells, transient transfection with polyethyleneimine
The experiment in a line: Radioligand displacement studies at the human H4 receptor ([3H]histamine). In kind it is binding. The note with it: [3H]histamine displacement, membranes of HEK 293T cells transfected with human H4R, 1 hour at 22° C. Here is the method: Radioligand displacement studies at the human H4 receptor were conducted. […] Approximately 4 million cells were seeded in a 10-cm dish and cultured overnight before transfection. For transfection of each dish of cells, the transfection mixture was prepared in 1 ml serum-free DMEM and contained 5 μg of human H4R receptor plasmid and 15 μl of 1 mg/ml 25 kDa linear polyethyleneimine (Polyscience, Inc., USA). The mixture was incubated for 10-15 minutes at room temperature before it was added into the monoloyer cell culture loaded with 5 ml fresh cell culture medium. Two days after transfection the cells were washed with PBS containing 1 mM EDTA, collected as pellet by centrifuging, and stored at −20° C. until use.
For the radioligand binding study, pellets of transfected cells were homogenized in H4R binding buffer (100 mM Tris-HCl, pH 7.4). For displacement binding assays, the membranes were typically incubated with 10^−4 to 10^−11 M of ligands (stock concentration was 10 mM 1 DMSO) in the presence of [^3H]histamine (Perkin-Elmer Life Science, Inc., USA) in a total volume of 200 μl. The reaction mixtures were incubated for 1 hour at room temperature (22° C.), and harvested on 96-well glass fiber C plates that were pretreated with 0.3% 750 kDa PEI. The binding assay data were analyzed using Prism 4.0 (Graphpad Software Inc., USA).

The Ki is the dissociation constant of the complex between target and ligand, obtained from inhibition or displacement.

T1 sequence (Q9H3N8 whole entry): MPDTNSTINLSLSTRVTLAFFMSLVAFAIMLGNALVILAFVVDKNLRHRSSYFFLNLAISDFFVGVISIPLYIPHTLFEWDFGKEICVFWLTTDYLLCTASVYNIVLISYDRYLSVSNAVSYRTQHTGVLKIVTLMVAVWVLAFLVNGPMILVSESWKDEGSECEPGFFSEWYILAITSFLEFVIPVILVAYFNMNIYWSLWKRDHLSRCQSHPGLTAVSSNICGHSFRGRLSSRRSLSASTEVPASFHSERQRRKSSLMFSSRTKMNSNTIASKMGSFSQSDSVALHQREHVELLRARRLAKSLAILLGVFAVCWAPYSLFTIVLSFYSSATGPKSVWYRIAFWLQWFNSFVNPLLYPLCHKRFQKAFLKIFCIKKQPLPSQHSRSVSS

With `COc1ccc(CNc2nc(N3CCN(C)CC3)nc3ccc(Cl)cc23)cc1` [VUF10505, 6-Chloro-N-(4-methoxybenzyl)-2-(4-methylpiperazin-1-yl)quinazolin-4-amine], the inhibitory constant (Ki) is below 1000 nM.
The same measure for `CN1CCN(c2nc(NCc3ccc(N)cc3)c3cc(Cl)ccc3n2)CC1` [VUF10509, N-(4-aminobenzyl)-6-chloro-2-(4-methylpiperazin-1-yl)quinazolin-4-amine]: below 1000 nM; for `CN1CCN(c2nc(NCc3ccc(C#N)cc3)c3cc(Cl)ccc3n2)CC1` [VUF10553, 4-((6-Chloro-2-(4-methylpiperazin-1-yl)quinazolin-4-ylamino)methyl)benzonitrile]: below 1000 nM.
In the case of `CN1CCN(c2nc(NCc3ccc(F)cc3)c3cc(Cl)ccc3n2)CC1` [VUF10513, 6-Chloro-N-(4-fluorobenzyl)-2-(4-methylpiperazin-1-yl)quinazolin-4-amine], the inhibition constant Ki was below 1000 nM.
Regarding `CN1CCN(c2nc(NCCc3ccc([N+](=O)[O-])cc3)c3cc(Cl)ccc3n2)CC1` [VUF10506, 6-Chloro-2-(4-methylpiperazin-1-yl)-N-(4-nitrophenethyl)quinazolin-4-amine], the inhibition constant Ki was below 1000 nM.
The same measure for `CCOC(=O)CNc1nc(N2CCN(C)CC2)nc2ccc(Cl)cc12` [VUF10456, Ethyl 2-(6-chloro-2-(4-methylpiperazin-1-yl)quinazolin-4-ylamino)acetate]: below 1000 nM; for `CN1CCN(c2ccc3cc(Cl)ccc3n2)CC1` [VUF6959, 6-Chloro-2-(4-methyl-piperazinyl)-quinoline]: below 1000 nM.
